# Several values for one entry are separate records, joined by “and”; a condition that tells them apart may be missing. Equal entries are not always repeated. Inconclusive results and toxic doses are left out.
# System: BDF1 mice, P388 leukemia ip, median survival T/C
# Assay: NCI In Vivo Anticancer Drug Screen. Data for tumor model P388 Leukemia (intraperitoneal) in B6D2F1 (BDF1) mice
# Conditions: endpoint: median survival time, higher = longer survival
# In short: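 Mice carrying the transplantable tumour receive compound or vehicle. Survival is followed in each arm, and the treated measure is divided by the vehicle measure.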
# [1] = dose: 50.0 mg/kg/injection, schedule: Q04DX003 (ip), vehicle: saline with Tween-80
# [2] = dose: 100.0 mg/kg/injection, schedule: Q04DX003 (ip), vehicle: saline with Tween-80
# [3] = dose: 200.0 mg/kg/injection, schedule: Q04DX003 (ip), vehicle: saline with Tween-80
# [4] = dose: 100.0 mg/kg/injection, schedule: Q04DX003 (ip), vehicle: saline
# [5] = dose: 200.0 mg/kg/injection, schedule: Q04DX003 (ip), vehicle: saline
# [6] = dose: 100.0 mg/kg/injection, schedule: Q04DX003 (ip), vehicle: Klucel (hydroxypropylcellulose) (HPC)
# [7] = dose: 50.0 mg/kg/injection, schedule: Q01DX005 (ip), vehicle: saline with Tween-80
# [8] = dose: 12.5 mg/kg/injection, schedule: Q04DX003 (ip), vehicle: saline sonified
# [9] = dose: 200.0 mg/kg/injection, schedule: Q04DX003 (ip), vehicle: Klucel (hydroxypropylcellulose) (HPC)
# [10] = dose: 400.0 mg/kg/injection, schedule: Q04DX003 (ip), vehicle: Klucel (hydroxypropylcellulose) (HPC)
# [11] = dose: 50.0 mg/kg/injection, schedule: Q01DX009 (ip), vehicle: saline
# [12] = dose: 100.0 mg/kg/injection, schedule: Q01DX009 (ip), vehicle: saline
# [13] = dose: 50.0 mg/kg/injection, schedule: Q01DX009 (ip), vehicle: saline with Tween-80
# [14] = dose: 100.0 mg/kg/injection, schedule: Q01DX009 (ip), vehicle: saline with Tween-80
structure (smiles),measurement,setting,value
O=[N+]([O-])c1ccc(N2CCCC2)c2c1no[n+]2[O-],T/C,[1],101 % of control
same,T/C,[2],101 % of control
same,T/C,[3],108 % of control
C#CC(C)OCC(C)OC (stereo not given),T/C,"dose: 12.5 mg/kg/injection, schedule: Q04DX003 (ip), vehicle: saline with Tween-80",118 % of control
same,T/C,[1],118 % of control
CC1=C(Br)C(=O)C(c2c(C)cc(C)cc2C)=C(Br)C1=O,T/C,"dose: 6.25 mg/kg/injection, schedule: Q01DX009 (ip), vehicle: saline",86 % of control
same,T/C,"dose: 12.5 mg/kg/injection, schedule: Q01DX009 (ip), vehicle: saline",93 % of control
same,T/C,"dose: 12.5 mg/kg/injection, schedule: Q04DX003 (ip), vehicle: saline",104 % of control
same,T/C,"dose: 25.0 mg/kg/injection, schedule: Q04DX003 (ip), vehicle: saline",95 % of control
same,T/C,"dose: 50.0 mg/kg/injection, schedule: Q04DX003 (ip), vehicle: saline",105 % of control
same,T/C,[4],97 % of control
same,T/C,[5],95 % of control
CC(C)(CBr)C(=O)N1CCN(C(=O)C(C)(C)CBr)CC1,T/C,"dose: 20.0 mg/kg/injection, schedule: Q04DX003 (ip), vehicle: Klucel (hydroxypropylcellulose) (HPC)",150 % of control
same,T/C,"dose: 30.0 mg/kg/injection, schedule: Q04DX003 (ip), vehicle: Klucel (hydroxypropylcellulose) (HPC)",159 % of control and 163 % of control
same,T/C,"dose: 44.0 mg/kg/injection, schedule: Q04DX003 (ip), vehicle: Klucel (hydroxypropylcellulose) (HPC)",163 % of control and 165 % of control
same,T/C,[6],195 % of control and 200 % of control
same,T/C,"dose: 150.0 mg/kg/injection, schedule: Q04DX003 (ip), vehicle: Klucel (hydroxypropylcellulose) (HPC)",175 % of control
CC(=O)Oc1cccnc1C(C#N)C#N,T/C,[7],92 % of control
CC1CC(C)(C)[N+](C)=C(CC(O)(c2ccccc2)c2ccccc2)O1 (stereo not given),T/C,"dose: 6.25 mg/kg/injection, schedule: Q04DX003 (ip), vehicle: saline sonified",109 % of control
same,T/C,[8],90 % of control
same,T/C,"dose: 25.0 mg/kg/injection, schedule: Q04DX003 (ip), vehicle: saline sonified",90 % of control
O=c1oc2ccccc2n1Cc1ccc(Cl)cc1,T/C,"dose: 25.0 mg/kg/injection, schedule: Q01DX005 (ip), vehicle: saline with Tween-80",92 % of control
same,T/C,[7],99 % of control
same,T/C,"dose: 200.0 mg/kg/injection, schedule: Q01DX005 (ip), vehicle: saline with Tween-80",94 % of control
O=S1(=O)CC(O)C(Cl)C1 (stereo not given),T/C,"dose: 100.0 mg/kg/injection, schedule: Q01DX001 (ip), vehicle: saline",104 % of control
same,T/C,[6],100 % of control
same,T/C,"dose: 200.0 mg/kg/injection, schedule: Q01DX001 (ip), vehicle: saline",100 % of control
same,T/C,[9],100 % of control
same,T/C,[10],100 % of control
CO[C@H]1CC[C@@]2(C)C(=CC[C@H]3[C@@H]4C[C@H](O)C[C@@]4(C)CC[C@@H]32)C1,T/C,"dose: 12.5 mg/kg/injection, schedule: Q01DX010 (ip), vehicle: other",105 % of control
same,T/C,"dose: 25.0 mg/kg/injection, schedule: Q01DX010 (ip), vehicle: other",90 % of control and 120 % of control
Cc1ccccc1N=C(N)N=C(N)N,T/C,[11],100 % of control
same,T/C,[12],100 % of control
O=[N+]([O-])C(CO)(CO)CO,T/C,[4],95 % of control
same,T/C,[5],100 % of control
same,T/C,"dose: 400.0 mg/kg/injection, schedule: Q04DX003 (ip), vehicle: saline",100 % of control
CNC(=S)NNc1ccccc1,T/C,"dose: 50.0 mg/kg/injection, schedule: Q01DX009 (ip), vehicle: Klucel (hydroxypropylcellulose) (HPC)",96 % of control
same,T/C,"dose: 100.0 mg/kg/injection, schedule: Q01DX009 (ip), vehicle: Klucel (hydroxypropylcellulose) (HPC)",91 % of control
same,T/C,[6],90 % of control
same,T/C,"dose: 200.0 mg/kg/injection, schedule: Q01DX009 (ip), vehicle: Klucel (hydroxypropylcellulose) (HPC)",95 % of control
same,T/C,[9],95 % of control
same,T/C,"dose: 400.0 mg/kg/injection, schedule: Q01DX009 (ip), vehicle: Klucel (hydroxypropylcellulose) (HPC)",95 % of control
same,T/C,[10],100 % of control
CCOC(=O)CNCc1cccc(Br)c1,T/C,"dose: 50.0 mg/kg/injection, schedule: Q01DX005 (ip), vehicle: saline",104 % of control
same,T/C,"dose: 100.0 mg/kg/injection, schedule: Q01DX005 (ip), vehicle: saline",106 % of control
same,T/C,"dose: 200.0 mg/kg/injection, schedule: Q01DX005 (ip), vehicle: saline",98 % of control
same,T/C,"dose: 400.0 mg/kg/injection, schedule: Q01DX005 (ip), vehicle: saline",104 % of control
Oc1c(Cl)c(Cl)c(Cl)c(Cl)c1Cl (tested in a mixture with another compound),T/C,"dose: 25.0 mg/kg/injection, schedule: Q01DX009 (ip), vehicle: saline with Tween-80",109 % of control
CCN(/C=C/C=C1C(=O)N(C)C(=O)N(C)C1=O)CC,T/C,[11],100 % of control
same,T/C,[12],102 % of control
same,T/C,"dose: 200.0 mg/kg/injection, schedule: Q01DX009 (ip), vehicle: saline",100 % of control
CCCCOCN(COCCCC)c1ccccc1Cl,T/C,[13],116 % of control
same,T/C,[14],107 % of control and 121 % of control
CN1CCCC(C(=O)c2ccccc2)S1(=O)=O (stereo not given),T/C,"dose: 100.0 mg/kg/injection, schedule: Q04DX002 (ip), vehicle: saline with Tween-80",104 % of control
same,T/C,"dose: 200.0 mg/kg/injection, schedule: Q04DX002 (ip), vehicle: saline with Tween-80",114 % of control
same,T/C,"dose: 400.0 mg/kg/injection, schedule: Q04DX002 (ip), vehicle: saline with Tween-80",107 % of control
CCOC(=S)Nc1ccc(F)cc1,T/C,"dose: 33.7 mg/kg/injection, schedule: Q01DX009 (ip), vehicle: saline with Tween-80",94 % of control
same,T/C,"dose: 67.5 mg/kg/injection, schedule: Q01DX009 (ip), vehicle: saline with Tween-80",103 % of control
same,T/C,"dose: 135.0 mg/kg/injection, schedule: Q01DX009 (ip), vehicle: saline with Tween-80",102 % of control
CCCCCCCCCCCC[N+](CC)(CC)CC(=O)O,T/C,"dose: 33.0 mg/kg/injection, schedule: Q01DX009 (ip), vehicle: saline",113 % of control
same,T/C,[11],113 % of control
N#CC1C=Cc2ccccc2N1C(=O)Oc1ccccc1 (stereo not given),T/C,[13],110 % of control
same,T/C,"dose: 100.0 mg/kg/injection, schedule: Q01DX001 (ip), vehicle: other",100 % of control
same,T/C,[14],100 % of control
same,T/C,[2],95 % of control
same,T/C,"dose: 200.0 mg/kg/injection, schedule: Q01DX001 (ip), vehicle: other",109 % of control
same,T/C,"dose: 200.0 mg/kg/injection, schedule: Q01DX009 (ip), vehicle: saline with Tween-80",110 % of control
same,T/C,[3],100 % of control
same,T/C,"dose: 400.0 mg/kg/injection, schedule: Q01DX001 (ip), vehicle: other",90 % of control
same,T/C,"dose: 400.0 mg/kg/injection, schedule: Q04DX003 (ip), vehicle: saline with Tween-80",113 % of control
O=[N+]([O-])c1ccc(Cl)c(S(=O)O)c1,T/C,"dose: 75.0 mg/kg/injection, schedule: Q04DX003 (ip), vehicle: saline",95 % of control
same,T/C,"dose: 150.0 mg/kg/injection, schedule: Q04DX003 (ip), vehicle: saline",100 % of control
same,T/C,"dose: 300.0 mg/kg/injection, schedule: Q04DX003 (ip), vehicle: saline",95 % of control
CC(C)(C)C[CH2][Hg][Cl],T/C,"dose: 3.13 mg/kg/injection, schedule: Q04DX003 (ip), vehicle: saline",105 % of control
same,T/C,"dose: 6.25 mg/kg/injection, schedule: Q04DX003 (ip), vehicle: saline",100 % of control
same,T/C,"dose: 8.25 mg/kg/injection, schedule: Q04DX003 (ip), vehicle: saline sonified",109 % of control
same,T/C,[8],113 % of control
same,T/C,"dose: 18.75 mg/kg/injection, schedule: Q04DX003 (ip), vehicle: saline sonified",100 % of control
CC1(CCNC2CCCCC2)Oc2ccccc2O1,T/C,"dose: 50.0 mg/kg/injection, schedule: Q04DX002 (ip), vehicle: Klucel (hydroxypropylcellulose) (HPC)",99 % of control
same,T/C,"dose: 100.0 mg/kg/injection, schedule: Q04DX002 (ip), vehicle: Klucel (hydroxypropylcellulose) (HPC)",101 % of control
